Data as given in paper PMC11200585, “Prospects for Prostate Cancer Chemotherapy: Cytotoxic Evaluation and Mechanistic Insights of Quinolinequinones with ADME/PK Profile” (Biomedicines, 2024).
Structures can show the parent of a compound that is named as a salt.

Tests used:
[1] = system: MDA-MB-231 cells; test: MTT assay; format: cell-based; conditions: Homo sapiens, 24 h, mean ± SEM
Method: (§1) For the MTT assay, DU-145, MDA-MB-231, HCT-116, and HUVEC cells (American Type Culture Collection) were seeded at a concentration of 1 × 10^4 cells per well in 96-well plates and allowed to incubate overnight, ensuring proper adherence. Subsequently, a series of concentrations for both AQQ1 and AQQ2 (ranging from 1 to 100 µM) were added to the culture medium with a final concentration of 1% DMSO, and cells were subjected to an additional 24 h incubation period. The control group only received 1% DMSO (Biomatik, Cambridge, ON, Canada). To establish a baseline for comparison, DOXO (Saba, İstanbul, Turkey), a known chemotherapeutic agent, was administered at equivalent concentrations. Following the incubation period, MTT (3-(4,5-dimethylthiazol-2-yl)-2,5-diphenyltetrazolium bromide) (Biomatik, Canada) assay was carried out to assess cell viability. Finally, the absorbance was quantified at 590 nm using a BioTek Epoc plate reader (Biotek, Winooski, VT, USA). The derived data were analysed using GraphPad Prism 8 software to calculate the inhibitory concentration 50 (IC50) values of the test compounds.

[2] = system: HCT-116 cells; test: MTT assay; format: cell-based; conditions: Homo sapiens, 24 h, mean ± SEM
Method: as §1

[3] = system: DU-145 cells; test: MTT assay; format: cell-based; conditions: Homo sapiens, 24 h, mean ± SEM
Method: as §1

[4] = system: Human Umbilical Vein Endothelial Cells (HUVEC); test: MTT assay; format: cell-based; conditions: 24 h, mean ± SEM
Method: as §1

[5] = system: DU-145 cells; test: Cell cycle assay (flow cytometry, PI); format: cell-based, human; conditions: 24 h, highest concentrations
Method: Cells were subjected to AQQ1 and DOXO treatments as previously described for apoptosis necrosis analysis. For cell cycle analysis, a cell population of 1 × 10^6 was collected, centrifuged, and the supernatant was removed. The resulting cellular pellet was re-suspended in 70% cold ethanol in PBS. Subsequently, the cells underwent a single PBS wash, followed by incubation in PBS containing […] PI (Sigma-Aldrich, St. Louis, MO, USA) and 2 mg/mL DNase-free RNase-A (Affymetrix, Inc., Santa Barbara, CA, USA) for 30 min at room temperature in a light-protected environment. Analysis was performed using the BD FACS Calibur Flow Cytometry System, and the BD CellQuest Pro Software software (version 5.1, Becton Dickinson, USA) was employed to determine cell cycle phase distributions in comparison to the control group.

COc1cccc2c1C(=O)c1c(O)c3c(c(O)c1C2=O)C[C@@](O)(C(=O)CO)C[C@@H]3O[C@H]1C[C@H](N)[C@H](O)[C@H](C)O1 [DOXO, Doxorubicin HCl, reference compound]
IC50 [1]: 59.1 ± 9.06 µM
IC50 [2]: 24.4 ± 6.9 µM
IC50 [3]: < 100 µM
IC50 [4]: 57.5 ± 9.82 µM
population of cells in the G0/G1 phase [5]: showed a similar effect on DU-145 cells
